Experiments:
HTLV-1 promoter = assay: CAT assay with HTLV-1 LTR (pU3R CAT) reporter, basal and Tax1 transactivated; assay type: cell-based; details: for basal transcription of the HTLV-1 promoter: decreased from 19
Experimental: (§1) Cells were electroporated as described previously (Kashanchi F, et al. (1992), Nucleic Acids Res, 20:4673-4674). CEM CD4^+ lymphocytes (12D7) (as well as U1 and HeLa cells described in subsequent examples) were kept at a density of 0.5 to 0.8×10^6 cells/ml with media added daily. Typically, 5×10^6 cells were electroporated with purified peptides, Tat protein and/or 5 μg of a reporter plasmid. Synthetic Tat peptides were purified by HPLC to 95 percent purity (Peptide Technologies Corporation, Gaithersburg, Md.). All peptides were analyzed for purity on a 4-20 percent gradient SDS/PAGE followed by silver staining. Recombinant Tat protein was purified by reverse phase HPLC and tested for functional activity in an in vitro transcription assay and in vivo electroporation into CEM cells (Kashanchi F, et al. (1992), Nucleic Acids Res, 20:4673-4674; Bohan Calif., et al. (1992) Gene Expr, 2:391-407). Tat peptide, Tat protein, and the reporter HIV LTR-CAT were mixed with cells and electroporated using a cell porater apparatus (Gibco/BRL, Gaithersburg, Md.). Cell mixtures were electroporated at 800 μF, 230 volts, in RPMI 1640 media without fetal calf serum. Following electroporation, cells were plated in 10 ml of complete media and samples collected 48 hours later for either CAT assay, p24 Gag antigen capture assay or northern blot analysis. Samples receiving rTNF-α (R & D System, Minneapolis, MN) after electroporation were collected 48 hours post-treatment for p24 Gag antigen capture assay (ABI, Bethesda, Md.).
(§2) It was of interest to determine if the peptides inhibited transcription from other polymerase II promoters. We have tested seven promoters including HTLV-1, CMV, PTHrP, IgH, RAS, RSV, and SIV. Each promoter, cloned upstream of the CAT reporter gene, was cotransfected individually with the Tat peptides under identical conditions. Electroporation was as in Example 1 but reporter genes used were HTLV-1 LTR (pU3R CAT, 5 μg) or pCMV-CAT (5 μg), containing the CMV promoter. […] For example, basal transcription of the HTLV-1 promoter decreased from 19 to 15.6 and 16.4 percent using 1 and 5,μg of the peptide analog 41/44. Similarly, Tat peptide analog 41/44 decreased Tax1 (1 μg) transactivated transcription approximately two-fold (49.2 to 22.8 percent). In other control experiments, transcription from the CMV promoter was decreased from 17.8 to 9.04 and 6.7 percent in the presence of 1 or 5 μg of Tat peptide analog 41/44.

CMV promoter = assay: CAT assay with pCMV-CAT reporter; assay type: cell-based; details: decreased from 17.8
Experimental: as §1, with “Samples receiving rTNF-α (R & D System, Minneapolis, MN) after electroporation were collected 48 hours post-treatment for p24 Gag antigen capture assay (ABI, Bethesda, Md.).” left out

[1] = test system: Tat transactivation of the HIV-1 promoter; assay: Transfection and CAT assay: Tat transactivation of HIV-1 LTR-CAT reporter in electroporated CEM lymphocytes; assay type: cell-based; details: for Tat transactivation (CAT) in presence of peptide: suppression from 95.7, Tat protein 1 μg, peptide 5 μg, HIV-1 LTR-CAT 5 μg, CEM
Experimental: Initial studies focused on the analysis of a series of Tat peptide analogs, containing various amino acid substitutions, for their ability to inhibit Tat transactivation of the HIV-1 promoter. CEM lymphocytes, grown to early- to mid-log phase, were electroporated with the Tat protein (1 μg), Tat core peptide 36-50 (5 μg) and the HIV-1 LTR-CAT reporter (5 μg).
as §1

[2] = test system: HIV-1 virus replication in U1/U937 co-cultivation; assay: Co-cultivation of transfected U1 cells with U937 monocyte cell line; assay type: cell-based; details: seven days of co-cultivation U1:U937 1:5; peptide 2.5 μg with Tat protein
Source text: It was of interest to determine whether the level of virus particles produced in the presence of Tat peptide analog 41/44 was sufficient to initiate a second round of virus replication. This is an important point to consider when designing specific inhibitors for HIV, since detection of p24 or reverse transcriptase in particles is not necessarily an indication of infectious particles. Dimitrov and Martin, Nature, 375:194-195 (1994). To address this question, we utilized co-cultivation assays in which the induced Ul cells were co-cultivated with the parental U937 monocyte cell line.
Transfected U1 cells (5×10^6) were co-cultivated with the U937 cells 48 hrs after transfection. The co-cultivation assay was initially tested using either a 1:1, 1:5, or 1:25 ratio of infected to uninfected cells. A 1:5 co-cultivation was determined to be the optimal ratio in obtaining the highest viral production within a 2 week period. Cells were co-cultivated in a total of 4 mls for a period of 2 weeks. After the fist week, 2 mls of media cells was removed and 2 mls of fresh media added. Both U937 and CEM cells were seeded at a density of 0.5×10^6 cells per culture dish prior to the co-cultivation experiment.
Initially, cells were electroporated with either wild type (2.5 μg) or peptide analog 41/44 (2.5 μg), along with Tat protein. […]

[3] = test system: HIV virus replication in U1 cells; assay: Tat-induced virus production in latently infected U1 cells, p24 antigen capture assay; assay type: cell-based, HIV-1; details: Tat protein 2.5 μg
Experimental: as §1, with “Samples receiving rTNF-α (R & D System, Minneapolis, MN) after electroporation were collected 48 hours post-treatment for p24 Gag antigen capture assay (ABI, Bethesda, Md.).” left out

cellular GAPDH gene = assay: Northern blot of U1 cells, cellular RNA; assay type: cell-based; details: U1 cells treated with Tat and peptide
Experimental: (§3) For northern blot analysis, U1 or HLM1 (Tat HIV proviral clone, Sadaie M R, et al. (1994), Virology, 202:513-518) cells were transfected with either Tat protein, or Tat protein in combination with peptides and collected 48 hrs later. Total RNA was extracted using the Trizol reagent (Gibco/BRL). RNA concentration was measured and equivalent amounts of RNA (5 μg) were loaded on a formaldehyde-agarose gel. The RNA was blotted onto nitrocellulose and hybridized with a randomly primed ^32P-labelled HIV-1 proviral genome BH10 (Lofstrand, Inc.), histone H2b, β-Actin or GAPDH probe (Oncor Science, Inc.). Blots were washed, exposed and quantitated using a PhosphorImager (Molecular Dynamics) […].
(§4) Cellular RNAs including actin, histone H2b, and GAPDH, were monitored in cells treated with Tat and peptide analogs. […] In contrast, no change in the expression of the cellular GAPDH gene was observed.

HIV-1 viral mRNA = assay: Northern blot of U1 cells, HIV-1 viral mRNA; assay type: cell-based; details: U1 cells treated with Tat and peptide, 48 hrs
Experimental: as §3, §4

[4] = test system: TBP/Tat-activated transcription; assay: Gal4-Tat / CMV-TBP activated minimal HIV-1 promoter CAT assay in CEM cells; assay type: cell-based; details: CEM T-cells, Gal4-TATA+/TAR- reporter
Experimental: It was of interest to determine if the Tat peptide analog targeted the interaction of Tat with TBP in vivo. For these experiments, we used a minimal HIV-1 promoter (−31 to +21) with Gal4 binding sites located upstream of the promoter. CEM cells were transfected with combinations of Gal4-TATA^+/TAR^− reporter plasmid, Gal4-Tat and a CMV-TBP expression plasmid. Southgate CD, et al. (1991), Genes Dev, 5:2496-2507; Horikoshi N, et al. (1995), Mol Cell Biol, 15:227-234. Peptides were added at the time of electroporation. Following electroporation, cells were plated in complete media, harvested at 48 hours and CAT assays performed. The Gal4-TAT^+/TAR^− plasmid contains six Gal4 binding sites, followed by the HIV sequence from −31 to […]. This construct contains no Sp1 sites or a TAR element.
The ability of Gal4-Tat to activate this promoter is dependent upon the presence of exogenously added TBP. […] Xhou Q, et al. (1995), EMBO J, 14:321-328; Huang L M, et al. (1994), EMBO, 13:2886-2896. We next examined if the peptides were capable of downregulating the TBP/Tat-activated transcription by electroporating CEM T-cells with either wild type or peptide 41/44.

[5] = test system: HTLV-1, CMV, PTHrP, IgH, RAS, RSV, and SIV promoters; assay: CAT assays with other polymerase II promoters; assay type: cell-based; details: seven promoters upstream of CAT, cotransfected with Tat peptides
Experimental: as §2

V-C-F-T-T-A-A-L-A-I-S-Y-G-R-K (SEQ ID NO:7) (VCFTTAALSISYGRK) [Tat peptide analog 41/44]
basal transcription of the HTLV-1 promoter (HTLV-1 promoter; 1 μg peptide): 15.6%
basal transcription of the HTLV-1 promoter (HTLV-1 promoter; 5 μg peptide): 16.4%
decrease of Tax1 transactivated transcription (HTLV-1 promoter; Tax1 1 μg, 49.2 to 22.8 percent): approximately two-fold
Tax1 transactivated transcription (HTLV-1 promoter; Tax1 1 μg, decreased from 49.2): 22.8%
transcription from the CMV promoter (CMV promoter; 1 μg peptide): 9.04%
transcription from the CMV promoter (CMV promoter; 5 μg peptide): 6.7%
Tat transactivation (CAT) in presence of peptide [1]: 1.1%
decrease of virus production in co-cultivation [2]: 85%
inhibition of virus replication in U1 cells ([3]; comparable experiment with 36-72 peptides): approximately 75%
inhibition of Tat-induced virus production in U1 cells ([3]; peptide 5 μg, in comparison to wild type peptide 5 μg, p24, 48 hours): approximately 85%
expression of the cellular GAPDH gene (cellular GAPDH gene): no change
level of HIV-1 viral mRNA (HIV-1 viral mRNA): a decrease in the level of HIV-1 viral mRNA was detected
inhibition of TBP/Tat-activated transcription [4]: inhibited TBP/Tat-activated transcription
inhibition of transcription from other polymerase II promoters [5]: minimal inhibition

V-C-F-T-T-A-A-L-G-I-A-Y-G-R-K (SEQ ID NO:8) (VCFTTAALGIAYGRK) [peptide 41/46]
Tat transactivation (CAT) in presence of peptide [1]: 5.5%

V-C-F-T-T-A-A-L-G-I-S-A-G-R-K (SEQ ID NO:9) (VCFTTAALGISAGRK) [Tat 36-50 (41/47)]
Tat transactivation (CAT) in presence of peptide [1]: 12%

V-C-F-T-T-K-A-L-G-I-S-Y-G-R-K (SEQ ID NO:2) (VCFTTKALGISYGRK) [Tat 36-50, wild type Tat core peptide, amino acids 36-50, reference compound]
drop in transcription activity ([1]; peptide included in the transfection with Tat protein): no apparent drop in transcription activity
decrease of virus production in co-cultivation [2]: did not inhibit HIV virus replication
